Here are results for 1 molecule from patent US7005416B2, “Dalfopristine/quinupristine combinations with cefpirome” (Jones Pharma Incorporated, priority 2000, dated 2006).

Converted amounts (≈) assume the structure as drawn. Where only a bound is given, the exact number is not on record here.

Data set [1] concerns MRSA strain P8. Kind of data set: Growth of bacterial populations on cefpirome-containing plates, with or without subinhibitory dalfopristine/quinupristine, strain P8. It is filed as cell-based, Staphylococcus aureus. How it is done: (§1) The study in vitro and the determination of the MICs (minimum inhibitory concentrations) was carried out using cultures on agar plates (Antimicrob. Agents Chemother., 39, 1419–1424 (1995), the disclosure of which is incorporated by reference herein).
(§2) Bacterial populations of the MRSA strains Ab 7 and P8 can grow on plates containing up to 60 mg/l of cefpirome.

The subject of data set [2] is MRSA strain AW7. Description: Growth of bacterial populations on cefpirome-containing plates, with or without subinhibitory dalfopristine/quinupristine, strain AW7. It is filed as cell-based, Staphylococcus aureus. How it is done:
as §1, §2

Data set [3] deals with MRSA strain AW7 (C-MLSB-resistant). Kind of data set: MIC determination on agar plates, MRSA strain AW7. It is filed as cell-based. Particulars: Staphylococcus aureus, read-out: minimum inhibitory concentration (MIC). How it is done: (§3) The microorganisms tested were two clinical isolates of C-MLSB-resistant MRSA: strains AW7 and P8, previously characterized in vitro, and in vivo in rat experimental endocarditis.
as §1

The test system of data set [4] is MRSA P8. Description: Rat experimental aortic endocarditis, MRSA P8. It is filed as in vivo, Wistar female rats. To be noted: MRSA P8, 5 days treatment, FIG. 2; monotherapy P>0.05, combination P<0.05. The source says: (§4) For the experimental endocarditis study, Wistar female rats weighing 200 g with aortic vegetation (produced according to the method described by Heraief et al., Infect Immunol., 37,127–31 (1982), the disclosure of which is incorporated by reference herein) were infected with an inoculum of 10^5 CFU/ml of the organism to be tested, which corresponds to 10 times the minimum inoculum to produce endocarditis in at least 90% of the untreated controls (where CFU refers to colony forming units).
(§5) The treatment was started 12 hours after the bacterial infection, and was continued for 5 days. […]
(§6) The control rats were sacrificed at the start of the treatment and the treated rats were sacrificed 24 hours after the final antibiotic administration. The bacterial density in the vegetations was determined after dissecting the vegetations under sterile conditions, weighing, homogenizing in 1 ml of saline solution, and then diluting the solution (series of dilutions) before placing it onto plates for counting of the colonies. The number of colonies growing on the plates was determined after 48 hours of incubation at 35° C. The bacterial densities in the vegetations were expressed as log10 CFU/g of tissue. […]

The nature of data set [5]: in vivo. On the set-up: species or system rats. Particulars: Wistar, rat, iv. The method, then:
The treatment was started 12 hours after the bacterial infection, and was continued for 5 days. The antibiotics were administered by means of a permanent venous catheter with a programmable pump (Pump 44; Harvard Apparatus Inc.) according to the method described in Antimicrobial Agents Chemother., 39, 1419–1424 (1995), the disclosure of which is incorporated by reference herein. The treatments simulated kinetics in humans, which were produced by intravenous administration of 7 mg/kg of quinupristine/dalfopristine every 12 hours, or by intravenous administration of 2 g of cefpirome every 12 hours.
Prior to the treatment experiments, the setting up of the simulation of the human kinetics of the quinupristine/dalfopristine combination with cefpirome in rats was performed on animals that were catheterized, but not infected. In these preliminary experiments, each point of the pharmacokinetics curve is the mean (±standard deviation) of the concentrations measured in 6 different rats. The concentrations of product in the serum were measured in a bioassay (using Micrococcus luteus for quinupristine/dalfopristine, and Bacillus subtilis ATCC 6633 for cefpirome).
These values are in accordance with the therapeutic levels observed in humans for these active principles. […]

Data set [6] has as its system MRSA strain P8 (C-MLSB-resistant). Description: MIC determination on agar plates, MRSA strain P8. It is filed as cell-based. To be noted: Staphylococcus aureus, read-out: minimum inhibitory concentration (MIC). The method, then:
as §3, §1

In data set [7] the test system is C-MLSB-resistant MRSA strains. Description: Rat experimental endocarditis resulting from C-MLSB-resistant MRSA strains (overall statement). Format: in vivo, rats. Particulars: monotherapy. The method, then: Synercid® (quinupristine/dalfopristine) and cefpirome were tested separately in rats, on experimental endocarditis resulting from C-MLSB-resistant MRSA strains.
as §4, §5, §6

For data set [8], the system named is MRSA AW7. Kind of data set: Rat experimental aortic endocarditis, MRSA AW7. Format: in vivo, Wistar female rats.
Excerpt: as §4, §5, §6

For `CO/N=C(\C(=O)N[C@@H]1C(=O)N2C(C(=O)[O-])=C(C[n+]3cccc4c3CCC4)CS[C@H]12)c1csc(N)n1` [cefpirome], the “cefpirome concentration in plates up to which bacterial populations can grow” value in data set [1] (MRSA strain P8, cefpirome alone) is listed as “up to 60 mg/l”; in data set [2] (MRSA strain AW7 (printed Ab 7), cefpirome alone), “up to 60 mg/l”. The “cefpirome concentration in plates at which the strain did not grow” value in data set [1] (MRSA strain P8, plates with subinhibitory (¼ MIC) dalfopristine/quinupristine combination added) was ≥ 15 mg/L; in data set [2] (MRSA strain AW7, plates with subinhibitory (¼ MIC) dalfopristine/quinupristine combination added), ≥ 5 mg/L. Also, the MIC in data set [3] came out at 4 µg/mL (≈ 7.77 µM); in data set [6] it was 2 µg/mL (≈ 3.89 µM). In addition, the “effectiveness on aortic endocarditis (statistical significance)” value was “neither quinupristine/dalfopristine, nor cefpirome, in monotherapy were significantly effective” in data set [4] and “neither quinupristine/dalfopristine, nor cefpirome, in monotherapy were significantly effective” in data set [8] (MRSA AW7, 5 days treatment, FIG. 2, monotherapy P>0.05, combination P<0.05). Besides, the concentration at 5 min in data set [5] was found to be 161 ± 19.7 µg/mL. The concentration at 12 h in data set [5] was determined as 2.2 ± 1.4 µg/mL. Besides, the effectiveness in vivo entry in data set [7] is on record as “Neither Synercid® nor cefpirome showed any effectiveness in vivo in monotherapy”. In data set [8] (MRSA AW7, in 38% of the cases), the “log10 CFU/g of vegetation” value was >8.7 in 38% log10 CFU/g.
